Three compounds from doi:10.1101/2023.12.04.569845, “Identification of 4-(6-((2-methoxyphenyl)amino)pyrazin-2-yl)benzoic acids as CSNK2A inhibitors with antiviral activity and improved selectivity over PIM3” (bioRxiv, 2023) can be followed below.

What all share (assay): biochemical
What all share (set-up): Thermal shift (DSF, SYPRO Orange) Tm shift of recombinant kinase domains at 10 uM compound

Experiment [1] concerns the target T1, MRCKa (Homo sapiens, UniProt Q5VT25).
T1 construct: gene CDC42BPA

Experiment [2] deals with EPHA7 (Homo sapiens, UniProt Q15375).
For experiment [3], the target named is SLK (Homo sapiens, UniProt Q9H2G2).
SLK, sequence (Q9H2G2 whole entry): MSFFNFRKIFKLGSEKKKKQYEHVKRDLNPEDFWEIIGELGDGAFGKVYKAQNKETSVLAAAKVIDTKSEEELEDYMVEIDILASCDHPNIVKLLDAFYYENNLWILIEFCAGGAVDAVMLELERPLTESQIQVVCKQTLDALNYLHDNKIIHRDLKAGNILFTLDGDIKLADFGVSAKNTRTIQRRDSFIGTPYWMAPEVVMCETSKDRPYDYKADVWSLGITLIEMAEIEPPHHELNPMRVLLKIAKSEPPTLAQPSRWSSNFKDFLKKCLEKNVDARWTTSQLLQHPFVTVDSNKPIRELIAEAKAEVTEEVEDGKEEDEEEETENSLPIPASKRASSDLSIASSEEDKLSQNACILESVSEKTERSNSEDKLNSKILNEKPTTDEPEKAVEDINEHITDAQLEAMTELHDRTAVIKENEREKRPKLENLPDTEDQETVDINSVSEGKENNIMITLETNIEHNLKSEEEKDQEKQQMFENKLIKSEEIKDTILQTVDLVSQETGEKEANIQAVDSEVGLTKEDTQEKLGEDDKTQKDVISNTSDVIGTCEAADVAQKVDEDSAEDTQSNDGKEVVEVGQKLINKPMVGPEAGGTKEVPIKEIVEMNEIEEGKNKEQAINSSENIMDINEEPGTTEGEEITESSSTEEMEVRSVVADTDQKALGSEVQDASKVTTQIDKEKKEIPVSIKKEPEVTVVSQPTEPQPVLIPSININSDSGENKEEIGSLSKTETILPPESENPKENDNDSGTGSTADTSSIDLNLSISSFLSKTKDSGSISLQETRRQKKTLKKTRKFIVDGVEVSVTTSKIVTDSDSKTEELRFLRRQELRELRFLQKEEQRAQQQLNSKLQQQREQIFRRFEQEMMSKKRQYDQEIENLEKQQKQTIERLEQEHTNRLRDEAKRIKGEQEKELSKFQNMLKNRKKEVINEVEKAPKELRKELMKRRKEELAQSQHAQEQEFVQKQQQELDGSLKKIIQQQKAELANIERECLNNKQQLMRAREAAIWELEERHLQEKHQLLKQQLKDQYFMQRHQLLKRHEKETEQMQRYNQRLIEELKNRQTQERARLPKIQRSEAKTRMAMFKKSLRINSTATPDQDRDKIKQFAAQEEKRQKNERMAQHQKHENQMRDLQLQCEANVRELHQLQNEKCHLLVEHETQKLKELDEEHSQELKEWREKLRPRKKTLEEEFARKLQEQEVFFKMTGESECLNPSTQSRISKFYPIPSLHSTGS
The target in experiment [4] is ABL1 (Homo sapiens, UniProt P00519).
For experiment [5], the target named is SRPK1 (Homo sapiens, UniProt Q96SB4).
SRPK1, sequence (Q96SB4 whole entry): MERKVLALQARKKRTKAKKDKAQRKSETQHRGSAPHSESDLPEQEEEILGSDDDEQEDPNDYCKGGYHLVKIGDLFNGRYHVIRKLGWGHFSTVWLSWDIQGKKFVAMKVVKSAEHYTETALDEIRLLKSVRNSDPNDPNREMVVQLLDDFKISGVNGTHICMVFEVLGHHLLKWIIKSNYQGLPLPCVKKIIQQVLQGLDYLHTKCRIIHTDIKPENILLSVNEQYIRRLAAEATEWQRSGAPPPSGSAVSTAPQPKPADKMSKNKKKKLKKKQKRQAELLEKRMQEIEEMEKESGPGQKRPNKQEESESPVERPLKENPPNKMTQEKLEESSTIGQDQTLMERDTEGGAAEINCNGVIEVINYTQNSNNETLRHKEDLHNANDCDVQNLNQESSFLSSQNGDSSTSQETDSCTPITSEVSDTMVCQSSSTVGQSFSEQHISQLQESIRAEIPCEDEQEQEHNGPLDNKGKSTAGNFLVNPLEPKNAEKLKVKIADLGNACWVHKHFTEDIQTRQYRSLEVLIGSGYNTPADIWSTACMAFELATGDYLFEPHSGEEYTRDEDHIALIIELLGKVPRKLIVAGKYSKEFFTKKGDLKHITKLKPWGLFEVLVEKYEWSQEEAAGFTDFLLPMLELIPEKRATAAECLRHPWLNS
Experiment [6] has as its target T2, MSK1_b (Homo sapiens, UniProt O75582).
T2 construct: gene RPS6KA5; second (C-terminal) kinase domain

Experiment [7] addresses T3, FECH (Homo sapiens, UniProt P22830).
T3 sequence (P22830 1-423): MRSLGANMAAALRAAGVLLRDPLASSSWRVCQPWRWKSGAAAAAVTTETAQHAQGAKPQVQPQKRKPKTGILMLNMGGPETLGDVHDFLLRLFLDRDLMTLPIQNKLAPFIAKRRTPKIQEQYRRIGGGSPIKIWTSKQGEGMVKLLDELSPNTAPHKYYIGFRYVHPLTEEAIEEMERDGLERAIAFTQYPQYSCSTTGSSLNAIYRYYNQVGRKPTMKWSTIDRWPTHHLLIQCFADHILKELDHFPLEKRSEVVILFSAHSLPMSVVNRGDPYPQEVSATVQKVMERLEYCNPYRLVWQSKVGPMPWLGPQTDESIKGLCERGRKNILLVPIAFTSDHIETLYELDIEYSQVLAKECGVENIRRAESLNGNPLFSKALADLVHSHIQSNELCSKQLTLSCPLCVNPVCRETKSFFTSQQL

Experiment [8] concerns the target T4, MER (Homo sapiens, UniProt Q12866).
T4 construct: gene MERTK
T4 sequence (Q12866 1-999): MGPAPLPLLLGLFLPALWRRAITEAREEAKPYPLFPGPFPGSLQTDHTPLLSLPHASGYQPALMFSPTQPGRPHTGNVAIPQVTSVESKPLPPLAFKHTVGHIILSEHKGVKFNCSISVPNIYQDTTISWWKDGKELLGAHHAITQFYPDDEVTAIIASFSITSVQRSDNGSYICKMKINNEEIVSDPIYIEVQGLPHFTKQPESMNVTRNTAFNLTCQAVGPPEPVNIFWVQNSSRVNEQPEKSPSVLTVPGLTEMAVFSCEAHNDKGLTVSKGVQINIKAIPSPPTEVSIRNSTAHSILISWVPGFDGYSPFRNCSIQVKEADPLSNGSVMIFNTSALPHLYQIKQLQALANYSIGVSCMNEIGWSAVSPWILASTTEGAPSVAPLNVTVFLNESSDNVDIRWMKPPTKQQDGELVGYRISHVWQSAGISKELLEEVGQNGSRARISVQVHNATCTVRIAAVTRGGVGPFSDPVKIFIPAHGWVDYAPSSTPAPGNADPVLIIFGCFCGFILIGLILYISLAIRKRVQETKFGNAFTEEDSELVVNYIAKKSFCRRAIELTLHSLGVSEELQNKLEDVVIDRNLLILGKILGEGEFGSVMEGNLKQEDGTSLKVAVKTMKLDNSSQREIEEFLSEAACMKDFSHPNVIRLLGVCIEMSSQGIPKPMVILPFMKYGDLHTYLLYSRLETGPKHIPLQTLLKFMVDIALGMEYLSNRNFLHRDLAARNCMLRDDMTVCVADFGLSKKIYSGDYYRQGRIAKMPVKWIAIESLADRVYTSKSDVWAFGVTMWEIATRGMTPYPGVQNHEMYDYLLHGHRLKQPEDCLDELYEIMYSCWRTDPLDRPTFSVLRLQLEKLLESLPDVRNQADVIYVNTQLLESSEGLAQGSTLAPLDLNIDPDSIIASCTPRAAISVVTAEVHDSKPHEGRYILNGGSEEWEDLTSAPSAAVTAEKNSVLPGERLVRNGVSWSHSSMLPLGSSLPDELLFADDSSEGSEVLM

Experiment [9] deals with T5, p38d (Homo sapiens, UniProt O15264).
T5 construct: gene MAPK13
T5 sequence (O15264 1-365): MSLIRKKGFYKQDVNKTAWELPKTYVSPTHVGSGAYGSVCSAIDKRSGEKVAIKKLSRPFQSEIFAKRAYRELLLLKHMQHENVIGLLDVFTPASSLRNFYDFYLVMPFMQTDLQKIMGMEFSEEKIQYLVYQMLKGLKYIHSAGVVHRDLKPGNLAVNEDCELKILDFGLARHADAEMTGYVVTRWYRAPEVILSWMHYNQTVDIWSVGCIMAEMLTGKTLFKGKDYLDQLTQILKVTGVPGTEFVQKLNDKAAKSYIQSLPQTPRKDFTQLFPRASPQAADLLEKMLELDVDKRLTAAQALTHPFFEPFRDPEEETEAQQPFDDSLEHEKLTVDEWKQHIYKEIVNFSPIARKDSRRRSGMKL

Like-named read-outs stand apart in the source and are kept apart here.

T1 sequence (Q5VT25 whole entry): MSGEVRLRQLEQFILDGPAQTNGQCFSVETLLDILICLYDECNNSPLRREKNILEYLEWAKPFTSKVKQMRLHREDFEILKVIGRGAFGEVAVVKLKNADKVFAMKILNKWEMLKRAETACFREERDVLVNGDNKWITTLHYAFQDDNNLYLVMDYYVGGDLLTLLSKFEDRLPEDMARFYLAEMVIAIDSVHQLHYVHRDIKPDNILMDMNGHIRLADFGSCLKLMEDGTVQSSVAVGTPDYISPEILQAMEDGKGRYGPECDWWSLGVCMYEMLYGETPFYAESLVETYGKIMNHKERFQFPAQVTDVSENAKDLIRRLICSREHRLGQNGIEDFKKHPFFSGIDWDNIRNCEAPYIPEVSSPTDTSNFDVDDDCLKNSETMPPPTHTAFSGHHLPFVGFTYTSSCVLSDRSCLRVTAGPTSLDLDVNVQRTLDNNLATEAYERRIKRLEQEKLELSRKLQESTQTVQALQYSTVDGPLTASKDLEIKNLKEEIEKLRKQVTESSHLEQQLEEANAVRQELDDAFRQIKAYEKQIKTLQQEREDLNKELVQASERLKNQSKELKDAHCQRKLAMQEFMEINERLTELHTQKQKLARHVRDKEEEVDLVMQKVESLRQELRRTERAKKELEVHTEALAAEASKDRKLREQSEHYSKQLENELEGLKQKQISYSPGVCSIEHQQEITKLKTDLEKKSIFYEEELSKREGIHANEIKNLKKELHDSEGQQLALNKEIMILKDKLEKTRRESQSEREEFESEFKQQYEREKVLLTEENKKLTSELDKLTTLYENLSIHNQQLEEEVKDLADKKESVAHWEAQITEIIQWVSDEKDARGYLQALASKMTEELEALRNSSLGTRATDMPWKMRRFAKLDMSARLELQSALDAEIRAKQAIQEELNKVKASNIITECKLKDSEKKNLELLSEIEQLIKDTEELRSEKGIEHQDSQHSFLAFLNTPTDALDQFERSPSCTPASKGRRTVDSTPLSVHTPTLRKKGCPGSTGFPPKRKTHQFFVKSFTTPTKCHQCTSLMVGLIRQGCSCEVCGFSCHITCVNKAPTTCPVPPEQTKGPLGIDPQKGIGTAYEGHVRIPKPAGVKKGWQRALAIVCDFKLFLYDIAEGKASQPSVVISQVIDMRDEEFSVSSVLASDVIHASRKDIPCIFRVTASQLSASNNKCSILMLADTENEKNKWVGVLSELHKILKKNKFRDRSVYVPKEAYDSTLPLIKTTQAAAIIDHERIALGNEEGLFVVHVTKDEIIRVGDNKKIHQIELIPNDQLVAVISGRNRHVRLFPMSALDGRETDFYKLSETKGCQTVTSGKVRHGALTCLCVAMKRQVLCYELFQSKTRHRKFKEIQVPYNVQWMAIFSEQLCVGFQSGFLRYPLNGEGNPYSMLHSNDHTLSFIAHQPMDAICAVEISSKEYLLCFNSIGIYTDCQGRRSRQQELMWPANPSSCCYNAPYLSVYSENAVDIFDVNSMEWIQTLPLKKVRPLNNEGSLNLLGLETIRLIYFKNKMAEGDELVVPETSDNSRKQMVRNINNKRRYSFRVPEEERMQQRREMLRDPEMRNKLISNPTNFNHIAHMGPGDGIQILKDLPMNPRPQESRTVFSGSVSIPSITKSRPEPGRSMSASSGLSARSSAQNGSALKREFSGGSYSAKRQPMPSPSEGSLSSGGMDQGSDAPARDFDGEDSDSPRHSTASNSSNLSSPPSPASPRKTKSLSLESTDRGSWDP
T2 sequence (O75582 whole entry, the tested form may be a part): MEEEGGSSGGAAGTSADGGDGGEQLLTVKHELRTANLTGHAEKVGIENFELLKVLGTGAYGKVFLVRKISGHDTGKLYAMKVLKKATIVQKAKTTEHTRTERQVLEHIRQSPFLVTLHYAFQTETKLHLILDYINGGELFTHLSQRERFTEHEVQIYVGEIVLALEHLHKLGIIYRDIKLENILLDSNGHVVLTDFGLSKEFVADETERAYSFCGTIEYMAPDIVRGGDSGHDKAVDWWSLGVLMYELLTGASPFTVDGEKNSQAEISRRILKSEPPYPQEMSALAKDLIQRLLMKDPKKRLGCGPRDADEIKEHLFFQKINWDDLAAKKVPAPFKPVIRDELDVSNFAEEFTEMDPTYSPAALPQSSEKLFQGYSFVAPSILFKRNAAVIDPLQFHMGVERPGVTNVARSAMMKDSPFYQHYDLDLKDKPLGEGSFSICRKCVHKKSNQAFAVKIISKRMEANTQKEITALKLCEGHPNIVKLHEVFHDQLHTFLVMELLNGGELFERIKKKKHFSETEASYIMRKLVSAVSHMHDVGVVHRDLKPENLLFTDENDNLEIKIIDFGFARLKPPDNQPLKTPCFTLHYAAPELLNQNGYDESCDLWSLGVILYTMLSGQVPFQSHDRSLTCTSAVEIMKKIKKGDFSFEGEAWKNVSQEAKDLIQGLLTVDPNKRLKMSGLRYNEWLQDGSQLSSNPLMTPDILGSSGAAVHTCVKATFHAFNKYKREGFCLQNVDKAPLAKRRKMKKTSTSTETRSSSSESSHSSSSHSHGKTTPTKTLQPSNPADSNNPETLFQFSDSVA

Regarding `CC(C)Oc1ccc2ccn(-c3cncc(-c4ccc(C(=O)O)cc4)n3)c2c1` [6c], the ΔTm at 10 µM in [1] (read-out: 6c) is -1 °C; in experiment [2] (read-out: 6c), 1 °C; in experiment [3] (read-out: 6c), 2 °C; in [4] (read-out: 6c) it was 8 °C; in experiment [5] (read-out: 6c) it was 6 °C; in experiment [6] (read-out: 6c), 6 °C. For the same compound, the ΔTm at 10 µM was -3 °C in experiment [7] (read-out: 6c), 3 °C in experiment [8] (read-out: 6c) and 1 °C in experiment [9] (read-out: 6c).

Turning to `COc1ccc(OC(C)C)cc1Nc1cncc(-c2ccc(C(=O)O)cc2)n1` [7c], the ΔTm at 10 µM was 0 °C in experiment [1] (read-out: 7c); 0 °C in experiment [2] (read-out: 7c); 1 °C in experiment [3] (read-out: 7c); 7 °C in [4] (read-out: 7c); 3 °C in experiment [5] (read-out: 7c); 6 °C in experiment [6] (read-out: 7c). For the same compound, the results for the ΔTm at 10 µM in experiment [7] (read-out: 7c), in experiment [8] (read-out: 7c) and in experiment [9] (read-out: 7c) were 0 °C, 3 °C and 0 °C, respectively.

Consider `CC(C)Nc1ccc2cnn(-c3cncc(-c4ccc(C(=O)O)cc4)n3)c2c1` [compound 2, 2], for which the ΔTm at 10 µM in experiment [1] (read-out: 2) is 0 °C; in [2] (read-out: 2) it was 2 °C; in experiment [3] (read-out: 2), 3 °C; in [4] (read-out: 2), 7 °C; in experiment [5] (read-out: 2), 6 °C; in experiment [6] (read-out: 2), 11 °C. The ΔTm at 10 µM amounted to 0 °C in experiment [7] (read-out: 2), 3 °C in experiment [8] (read-out: 2) and 0 °C in experiment [9] (read-out: 2).
